Values of other authors, collected in patent publication US20180116967A1, “EXTENDED RELEASE TABLET OF CYCLOBENZAPRINE” (SYNMOSA BIOPHARMA CORPORATION, priority 2015, published 2018).

Tested on: plasma protein

## CN(C)CCC=C1c2ccccc2C=Cc2ccccc21 [cyclobenzaprine, 3-(5H-dibenzo[a,d]cyclohepten-5-ylidene)-N,N-dimethyl-1-propanamine]
  drug coupled to plasma protein: About 93%
